Reference: patent US20110014178A1 (priority 2002, published 2011)

Legend:
[1] = biological target: phospholipase C (alpha toxin produced by Clostridium perfringens) (Clostridium perfringens, UniProt P0C216); conditions: cited from earlier work
C. perfringens = assay type: in vivo, broiler chicks; conditions: 50 g/t in feed, challenged
Clostridium perfringens = assay type: cell-based; conditions: FIC plates

Compound	effect on enzymatic activity of phospholipase C [1]	Feed Consum. (C. perfringens)	Feed Conv. (C. perfringens)	NE Mort. (C. perfringens)	Wt. Gain D 5 to D 14 (C. perfringens) [kg]	Wt. Gain D 5 to D 27 (C. perfringens) [kg]	Wt. Gain D 14 to D 27 (C. perfringens) [kg]	Lesion Score (0 to 3) Day 22 (C. perfringens; 0 normal, 3 most severe)	Lesion Score (0 to 3) Day 27 (C. perfringens; 0 normal, 3 most severe)	lysozyme effective alone (Clostridium perfringens; 100 times dilution of overnight culture, no nisin)	lysozyme required to achieve a bactericidal effect (Clostridium perfringens; in combination with nisin 3 ppm) [ppm]
O=C(O)CN(CCN(CC(=O)O)CC(=O)O)CC(=O)O [EDTA]	direct inhibitory effect										
bacitracin methylene disalicylate [BMD]		14.000	1.659	2	0.252	0.946	0.694	0.0	0.3		
lysozyme	direct inhibitory effect									approximately 120 ppm	8
